# Structures can show the parent of a compound that is named as a salt.
# Test system: male Sprague-Dawley rats
# Experiment: cavernous nerve crush injury rat model: erectile function (ICP, ICP/MAP) on cavernosal nerve stimulation
# Type: in vivo
# Description: Experiments were conducted in male Sprague-Dawley rats according to previously published methods for forceps-induced nerve crush injury and erectile function measurements (Rehman, J., et al., Urology 51:640-644, 1998; Sezen, S. F., et al., Int J. Impot. Res. 14:506-12, 2002). Subjects were anesthetized with Phenobarbital. The prostate of the subjects was exposed and the cavernosal nerve was clipped on either side with a forceps to induce mechanical injury (crush). This rat model mimics the nerve injury that develops during human male prostatectomy, leading to nerve injury and subsequent erectile dysfunction. Subjects were studied 2 weeks after the injury. Two groups of subjects were used, one group treated with vehicle and one group treated with compound 8l methanesulfonate salt. Compound 8l methanesulfonate salt was injected at 30 mg/kg i.v. immediately before the crush injury, and on the following day at the same dose. Thereafter, for 12 days, subjects were treated with 60 mg/kg compound 8l methanesulfonate salt intraperitoneally. At 2 weeks, subjects were re-anesthetized and measured for mean arterial blood pressure (MAP) and intracavernosal pressure (ICP). Cavernosal nerve stimulation was conducted at 5 and 7.5 V using a square pulse stimulator for 30 msec. ICP was determined as the area under curve (mmHg×sec). In addition, IPC/MAP ratios were determined.
smiles,measurement,setting,value
O=c1[nH]c2c(c3ccccc13)Cc1cc(S(=O)(=O)NCCCN3CCOCC3)ccc1-2 [Compound 8l methanesulfonate salt],erectile function,"rat model that mimics the nerve injury that develops during human male prostatectomy, versus vehicle",improves erectile function
same,"ICP (intracavernosal pressure, area under curve)","rats 2 weeks after cavernous nerve crush injury, 30 mg/kg i.v. immediately before injury and next day, then 60 mg/kg i.p. for 12 days, cavernosal nerve stimulation at 5 and 7.5 V, mean ± SEM, n = 14-16, *p < 0.05, vehicle 1124 ± 212, normal approx. 4000",1471 ± 151* mmHg × sec
same,ICP/MAP ratio,"rats 2 weeks after cavernous nerve crush injury, 30 mg/kg i.v. immediately before injury and next day, then 60 mg/kg i.p. for 12 days, mean ± SEM, n = 14-16, *p < 0.05, vehicle 0.16 ± 0.03, normal approx. 0.8-0.9",0.23 ± 0.02*
